How the values were obtained:
GAPDH = test: Measurement of GAPDH activity; format: biochemical; conditions: non-toxic doses
Experimental: Cells were lysed in a buffer containing 10 mmol/L HEPES (pH 7.4), 150 mmol/L NaCl, 5 mmol/L EDTA, 1% NP40, 10 μg/mL aprotinin, 1 mmol/L phenylmethylsulfonyl fluoride and 10 mmol/L leupeptin (buffer A). Lysates were standardized for protein content and incubated with 0.25 mmol/L NAD, 3.3 mmol/L DTT, 13 mmol/L Na4P2O7 (pH 8.5), 26 mmol/L sodium arsenate, and 25 mmol/L D-glyceraldehyde-3-phosphate in a black 96-well plate (Cellstar). GAPDH activity was measured on a fluoroscan at 445 nm as the increase in fluorescence related to NADH accumulation. Activity is expressed as the change in absorbance per milligram of protein.

HIF-1 = HIF-1 activity luciferase assay; format: cell-based; conditions: non-toxic doses; hypoxia
Experimental: HIF-1 activity. HeLa cells stably expressing the p3HRE-Dptk-LUC vector, which contain three copies of the hypoxia-responsive element (HRE) from the erythropoietin gene (Dayan et al., 2006), were transiently transfected (calcium phosphate) with control vector (pMIG or empty pSUPER vector) or vectors (2 μg) to either overexpress or to silence GAPDH. The following day, transfected cells were exposed to normoxia or hypoxia 1% O2 for 24 hours before cell lysis in a reporter lysis buffer (Promega). It is worth noting that for determination of HIF-1 activity in hypoxia, cells were directly lysed in the hypoxic chamber). The luciferase assay was performed as previously described (Jacquin et al., 2013).

HIF-1α = HIF-1α protein expression (Western blot); format: cell-based; conditions: non-toxic doses; hypoxia
Experimental: Briefly, after exposure to normoxia or hypoxia, cells were washed and lysed in laemmli buffer. Cells exposed to hypoxia were lysed in the hypoxic chamber. Proteins (40 μg) were separated on 8% to 12% SDS polyacrilamide gels and transferred onto polyvinylidene difluoride membranes (Millipore). Membranes were then blotted with antibody corresponding to the indicated proteins. Immunoreactive bands were detected with a horseradish peroxidase (HRP) anti-mouse (Dako) or anti-rabbit (Cell Signaling) by enhanced chemiluminescence (Pierce). When indicated, Western blot quantification was made using ImageJ software.

NF-κB [1] = test: Electrophoretic mobility shift assay (EMSA) of NF-κB binding in Raji cells; format: cell-based, human; conditions: hypoxia 1% O2 24 hours, 0.2 μg/ml
Experimental: Total cell extracts from Raji cells treated or not with 0.2 μg/ml of KA and exposed to normoxia or hypoxia 1% O2 for 24 hours were prepared as previously described (Bottero et al., 2003). For mobility shift assay, a NF-κB probe consisting of a synthetic double stranded oligonucleotide containing the KB binding site of the Igκ promoter was used. The end-labeled probe (T4 kinase) was incubated with extracts samples for 20 minutes at 30° C. Complexes were separated by electrophoresis on a 5% non-denaturating polyacrylamide gel in 0.5×TBE. Dried gels were subjected to autoradiography.

NF-κB [2] = test: NF-κB activity luciferase assay; format: cell-based
Experimental: HeLa cells stably expressing GAPDH-V5 or GAPDH double mutant (DM-V5) control (pMIG) were transiently co-transfected by the classical calcium phosphate method with 0.5 μg of a vector encoding cFP and 2 μg of a luciferase reporter gene controlled by a minimal tk promoter ans sex reiterated KB sites (icBx6 tk luc). Forty-eight hours after transfection, cells were exposed to either normoxia or hypoxia 1% O2 for 24 hours before harvesting and analyzing as previously described (Bottero et al., 2003).

GAPDH-TRAF2 interaction = test: GAPDH-TRAF2 co-immunoprecipitation in cells cultured in hypoxia; format: cell-based; conditions: Eμ-Myc and HeLa cells
Experimental: (§1) Protein G Sepharose 4B beads (Invitrogen, CA, USA) were first incubated with rabbit anti-TRAF2 or mouse anti-GAPDH antibody or IgG control (Santacruz, Calif., USA) for 4 hours at 4° C. Beads were then incubated overnight with 1 mg of precleared protein lysed in 20 mM Tris-HCl, pH 7.4, 137 mM NaCl, 1 mM EGTA, 10% glycerol, 1% Triton X-100, 1.5 mM MgCl2, 1 μg/μl PMSF, protease and phosphatase inhibitor cocktail (Thermo Scientific). Samples were then washed five times, boiled in Laemmli buffer and analyzed by immunoblotting with the indicated antibodies

GAPDH/TRAF2 interaction = molecular target: T1, GAPDH/TRAF2 interaction (Mus musculus, UniProt P16858); test: GAPDH/TRAF2 co-immunoprecipitation in tissues of Eμ-Myc bearing mice; format: in vivo; conditions: 24 hours after treatment
T1 construct: from tissue; lymph node tumors are collected elsewhere in the text
T1 sequence (P16858 whole entry): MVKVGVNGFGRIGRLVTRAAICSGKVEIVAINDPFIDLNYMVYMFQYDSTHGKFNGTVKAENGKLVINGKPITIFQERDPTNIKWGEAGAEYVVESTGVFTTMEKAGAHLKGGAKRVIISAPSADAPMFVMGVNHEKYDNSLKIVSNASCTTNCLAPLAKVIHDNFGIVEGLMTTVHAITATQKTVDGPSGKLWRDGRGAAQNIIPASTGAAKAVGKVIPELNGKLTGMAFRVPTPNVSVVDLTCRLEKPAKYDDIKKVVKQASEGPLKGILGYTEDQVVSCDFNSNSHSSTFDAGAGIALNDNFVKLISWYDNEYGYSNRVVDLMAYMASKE
Experimental: as §1, with “Consequently, we investigated GAPDH-TRAF2 binding in Eμ-Myc and HeLa cells and evidenced that GAPDH could be co-immunprecipitated with TRAF2 when cells are cultured in hypoxia. […] We further tested this interaction in vivo. For that matter Eμ-Myc bearing mice were treated once with PBS or with the covalent inhibitor koningic acid (i.p) and GAPDH/TRAF2 interaction was investigated by co-immunoprecipation in tissues, 24 hours after treatment. […] Protein” for “Protein”

hif-1α mRNA = hif-1α mRNA in vivo (qPCR); design: species or system mouse; conditions: 5 mg/kg
Experimental: Consequently, we investigated GAPDH-TRAF2 binding in Eμ-Myc and HeLa cells and evidenced that GAPDH could be co-immunprecipitated with TRAF2 when cells are cultured in hypoxia. […] We further tested this interaction in vivo. For that matter Eμ-Myc bearing mice were treated once with PBS or with the covalent inhibitor koningic acid (i.p) and GAPDH/TRAF2 interaction was investigated by co-immunoprecipation in tissues, 24 hours after treatment.
(§2) Total RNA was extracted from cells using the RNA extraction kit (Qiagen) according to the manufacturer's instructions. Total RNA (2 μg) was added to 20 μl reverse transcription-PCR using the Omniscript kit (Qiagen). The relative mRNA expression level of gapdh, hif-1α, ca9, vegf-α, ldh-a (mouse and human) were obtained by real-time quantification PCR (qPCR), using the TaqMan PCR Master Mix (Eurogentec) and TaqMan assay primer set (Applied Biosystems, Foster City, Calif.) on the 7500 Fast and the Step One (Applied Biosystems) according to the manufacturer's instructions (sequences provided upon request). For in vitro experiment, all samples were normalized to rplp0. All mRNA samples from human tumor tissues were normalized by ppia (cyclophilin-a).

[3] = test system: ms4a1 (CD20 encoding gene); test: ms4a1 expression in lymphoma bearing mice; design: species or system mouse; conditions: in vivo inhibition of GAPDH
Experimental: To get deeper into the mechanism of CD20 expression, we observed that upon 24 hours of hypoxia, primary Eμ-Myc cells are showing a 2-fold increase in mRNA level of ms4a1 when compared to normoxia. […] We then confirmed the effects of hypoxia on CD20 cell surface expression using the human Burkitt's lymphoma cell line Raji.
as §2

[4] = test system: CD20 cell surface expression; test: CD20 cell surface expression by flow cytometry in Raji cells; format: cell-based, human; conditions: hypoxia 1% O2 48 h, non-toxic doses (0.1 μg/ml)
Experimental: Cells (0.5·10^6) cells (in triplicate) were washed 1×PBS and incubated at 4° C. with the monoclonal anti-CD20 (Affymetrix eBioscience) at a concentration of 2.5 μg/ml for 45 minutes. IgG isotypic controls were included. Cells were then washed 2×PBS and incubated at 4° C. for 30 minutes in the dark with a anti-mouse Alexa 488 (1 μg/ml). Then cells were washed twice in PBS and resuspend in 100 μl of PBS containing 0.5 μg/ml of DAPI (4′,6-diamidino-2-phenylindole). Ten thousand events were analyzed immediately by flow cytometry using a MACSQuant Analyzer (Miltenyi Biotec). The mean fluorescence intensity (MFI) obtained for lived (DAPI negative) CD20 positive cells was reported. Histograms represent the average of three independent experiments.
A total of 1×10^6 cells were washed in PBS and incubated for 45 minutes at 4° C. with the monoclonal anti-CD20 antibody (2.5 μg/ml) (Affymetrix eBioscience). The cells were then washed in PBS and incubated at 4° C. for 30 minutes with an anti-mouse Alexa Fluor 488 (1 μg/ml). […] After washing twice in the saponine-containing buffer, the cells are resuspended in PBS/2% FCS and analyzed by flow cytometry. Immediately afterwards, 10,000 events were analyzed by flow cytometry using a MACSQuant Analyzer (Miltenyi Biotec). The mean fluorescence intensity (MFI) obtained for CD20-low, CD20-high, GAPDH-low, GAPDH-high cells, was reported.

DLBCL patients = test: Overall survival of DLBCL patients by gapdh mRNA level; format: in vivo, human
Excerpt: Thirteen patients who underwent biopsy for DLBCL between May 2007 and May 2011 at the Saint-Louis Hospital (Department of Onco-hematology, Hopital Saint-Louis, Paris, France) were selected. The patients received the necessary information concerning the study and consent was obtained. Morphologic classification of the tumors was assigned according to the World Health Organization (WHO) criteria (Campo et al., 2011). The tumors extensions were staged according to the Ann Arbor stage, and all patients were scored by IPIaa (project, 1993). Follow-up data for all the patients were collected regularly. Among these patients, 8 relapsed (61.5%) and 6 (46%) died.
Data are expressed as mean±standard deviation (SD). Differences in the calculated mean between each group were analyzed using Fisher test (quantitative variable). Survival functions were estimated by the Kaplan-Meier method and compared by the log-rank test. A P value of 0.05 or less was considered to indicate statistical significance. Kaplan-Meier survival curves and box plot representations were performed using “R” software.
[…] was measured from the date of diagnosis to that of death from any cause or to the stopping date. When the latter date was not reached, the data were censored at the date of the last follow-up evaluation. […]

## CC(C)[C@H]1CC[C@@]2(CO2)[C@H]2C(=O)OCC(C(=O)O)=C[C@H]12 [Koningic acid]
GAPDH
  reduction of GAPDH activity: 50-60%
HIF-1
  HIF-1 activity: decrease in HIF-1 activity
HIF-1α
  HIF-1α expression: decrease
NF-κB [1]
  NF-κB binding to its consensus sequence: reduced its binding in hypoxia
NF-κB [2]; hypoxic HeLa cells
  NF-κB transcriptional activity: prevented NF-κB transcriptional activity
NF-κB [2]; specific and partial inhibition of GAPDH in hypoxia
  NF-κB activity: decreases NF-κB activity
GAPDH-TRAF2 interaction
  GAPDH-TRAF2 interaction: loss of GAPDH-TRAF2 interaction
GAPDH/TRAF2 interaction; 0.5 mg/kg i.p. once
  GAPDH/TRAF2 interaction in vivo: inactive dose
GAPDH/TRAF2 interaction; 5 mg/kg i.p. once
  GAPDH/TRAF2 interaction in vivo: reduced the interaction
hif-1α mRNA
  hif-1α mRNA in vivo: reduced hif-1α mRNA
[3]
  ms4a1 expression: reduction in ms4a1 expression
[4]
  hypoxic-dependent increase in CD20 cell surface expression: prevented this hypoxic-dependent increase in CD20 expression

## Rituximab-based chemotherapy: anti-CD20 monoclonal antibody rituximab given with chemotherapy to DLBCL patients upon diagnosis
DLBCL patients; "low" gapdh group
  patients still alive 350 days following the diagnosis: 33%
DLBCL patients; DLBCL with "high" levels of gapdh mRNA
  patients still alive 350 days following the diagnosis: 100%

— patent publication US9879325B2, “Method for predicting the responsiveness a patient to a treatment with an anti-CD20 antibody” (ASSISTANCE PUBLIQUE—HÔPITAUX DE PARIS, priority 2014, dated 2018)
